# Measurements taken from patent US9884832B2 (priority 2011, dated 2018).
# Like-named read-outs stand apart in the source and are kept apart here.
# Assays:
# [1] = molecular target: AM2 S31N (serine→asparagine mutation at residue 31 in the M2 protein) (Influenza A virus, UniProt P0DOF5, S31N); format: cell-based, influenza virus A/Udorn/72
# [2] = molecular target: AM2 V27A (valine→alanine mutation at residue 27 in the M2 protein) (Influenza A virus, UniProt P0DOF5, V27A); format: cell-based, influenza virus A/Udorn/72
compound,measurement,setting,value
"C[Si](C)(C)CCCNCc1ccc(O)cc1O [Example 113, 4-[(3-Trimethylsilanyl-propylamino)-methyl]-benzene-1,3-diol]",S31N OOcyte Inhibition at 100 uM (%),[1]; pH 5.5,B (key: (A)=31-95%; (B)=0-30%)
same,V27A OOcyte Inhibition at 100 uM (%),[2]; pH 5.5,B (key: (A)=31-95%; (B)=0-30%)
"Clc1ccc(CNC23CC4CC(CC(C4)C2)C3)s1 [Example 79a, N-((5-chlorothiophen-2-yl)methyl)adamantan-1-amine]",S31N OOcyte Inhibition at 100 uM (%),[1],A (key: (A)=31-95%; (B)=0-30%)
same,V27A OOcyte Inhibition at 100 uM (%),[2],B (key: (A)=31-95%; (B)=0-30%)
"Fc1ccc(C(F)(F)F)cc1CNC12CC3CC(CC(C3)C1)C2 [Example 62, Adamantan-1-yl-(2-fluoro-5-trifluoromethyl-benzyl)-amine]",S31N OOcyte Inhibition at 100 uM (%),[1]; pH 5.5,B (key: (A)=31-95%; (B)=0-30%)
same,V27A OOcyte Inhibition at 100 uM (%),[2]; pH 5.5,B (key: (A)=31-95%; (B)=0-30%)
"CC1(C)C2CCC(CNCc3ccc(O)cc3O)C1C2 (stereo not shown) [Example 114, 4-{[(6,6-Dimethyl-bicyclo[3.1.1]hept-2-ylmethyl)-amino]methyl}-benzene-1,3-diol]",S31N OOcyte Inhibition at 100 uM (%),[1]; pH 5.5,B (key: (A)=31-95%; (B)=0-30%)
same,V27A OOcyte Inhibition at 100 uM (%),[2]; pH 5.5,B (key: (A)=31-95%; (B)=0-30%)
"c1nc2ccc(CNC34CC5CC(CC(C5)C3)C4)cc2[nH]1 [Example 94, Adamantan-1-yl-(3H-benzoimidazol-5-ylmethyl)-amine]",S31N OOcyte Inhibition at 100 uM (%),[1]; pH 5.5,B (key: (A)=31-95%; (B)=0-30%)
same,V27A OOcyte Inhibition at 100 uM (%),[2]; pH 5.5,B (key: (A)=31-95%; (B)=0-30%)
"C[S+]([O-])c1ccc(CNC23CC4CC(CC(C4)C2)C3)cc1 (stereo not shown) [Example 24, Adamantan-1-yl-(4-methanesulfinyl-benzyl)-amine]",S31N OOcyte Inhibition at 100 uM (%),[1]; pH 5.5,B (key: (A)=31-95%; (B)=0-30%)
same,V27A OOcyte Inhibition at 100 uM (%),[2]; pH 5.5,B (key: (A)=31-95%; (B)=0-30%)
"Oc1cccc2ccc(CNC34CC5CC(CC(C5)C3)C4)nc12 [Example 65a, 2-((adamantan-1-ylamino)methyl)quinolin-8-ol]",S31N OOcyte Inhibition at 100 uM (%),[1],B (key: (A)=31-95%; (B)=0-30%)
same,V27A OOcyte Inhibition at 100 uM (%),[2],B (key: (A)=31-95%; (B)=0-30%)
"c1cc(CNC23CC4CC(CC(C4)C2)C3)co1 [Example 66a, Adamantan-1-yl-furan-3-ylmethyl-amine]",S31N OOcyte Inhibition at 100 uM (%),[1],B (key: (A)=31-95%; (B)=0-30%)
same,V27A OOcyte Inhibition at 100 uM (%),[2],B (key: (A)=31-95%; (B)=0-30%)
"F[B-](F)(F)C[NH2+]C12CC3CC(CC(C3)C1)C2 [Example 204a, N-[(Trifluoro-4-boranyl)methyl]adamantan-1-aminium]",S31N OOcyte Inhibition at 100 uM (%),[1],B (key: (A)=31-95%; (B)=0-30%)
same,V27A OOcyte Inhibition at 100 uM (%),[2],B (key: (A)=31-95%; (B)=0-30%)
"CC1(C)CCC(NCc2ccc(O)cc2O)CC1 [Example 108, 4-[(4,4-Dimethyl-cyclohexylamino)-methyl]-benzene-1,3-diol]",S31N OOcyte Inhibition at 100 uM (%),[1]; pH 5.5,B (key: (A)=31-95%; (B)=0-30%)
same,V27A OOcyte Inhibition at 100 uM (%),[2]; pH 5.5,B (key: (A)=31-95%; (B)=0-30%)
"Oc1ccc(CNC23CC4CC(CC(C4)C2)C3)c(Cl)c1 [Example 58, 4-(Adamantan-1-ylaminomethyl)-3-chloro-phenol]",S31N OOcyte Inhibition at 100 uM (%),[1]; pH 5.5,B (key: (A)=31-95%; (B)=0-30%)
same,V27A OOcyte Inhibition at 100 uM (%),[2]; pH 5.5,A (key: (A)=31-95%; (B)=0-30%)
"c1cc(-c2ccc(CNC34CC5CC(CC(C5)C3)C4)cc2)co1 [Example 42, N-(4-(Furan-3-yl)benzyl)adamantan-1-amine]",S31N OOcyte Inhibition at 100 uM (%),[1]; pH 5.5,A (key: (A)=31-95%; (B)=0-30%)
same,V27A OOcyte Inhibition at 100 uM (%),[2]; pH 5.5,B (key: (A)=31-95%; (B)=0-30%)
"c1csc(-c2ccc(-c3ccc(CNC45CC6CC(CC(C6)C4)C5)s3)s2)c1 [Example 157a, N-([2,2′:5′,2″-terthiophen]-5-ylmethyl)adamantan-1-amine]",S31N OOcyte Inhibition at 100 uM (%),[1],B (key: (A)=31-95%; (B)=0-30%)
same,V27A OOcyte Inhibition at 100 uM (%),[2],B (key: (A)=31-95%; (B)=0-30%)
"COc1ccc(-c2cc(CNC34CC5CC(CC(C5)C3)C4)no2)cc1 [Example 110a, N-((5-(4-methoxyphenyl)isoxazol-3-yl)methyl)adamantan-1-amine]",S31N OOcyte Inhibition at 100 uM (%),[1],A (key: (A)=31-95%; (B)=0-30%)
same,V27A OOcyte Inhibition at 100 uM (%),[2],B (key: (A)=31-95%; (B)=0-30%)
"C[Si](C)(C)c1ccc(CNC23CC4CC(CC(C4)C2)C3)cc1 [Example 6a, Adamantan-1-yl-(4-trimethylsilanyl-benzyl)-amine]",S31N OOcyte Inhibition at 100 uM (%),[1],A (key: (A)=31-95%; (B)=0-30%)
same,V27A OOcyte Inhibition at 100 uM (%),[2],B (key: (A)=31-95%; (B)=0-30%)
"CC(NC12CC3CC(CC(C3)C1)C2)c1ccc(I)s1 (stereo not shown) [Example 82a, N-(1-(5-iodothiophen-2-yl)ethyl)adamantan-1-amine]",S31N OOcyte Inhibition at 100 uM (%),[1],B (key: (A)=31-95%; (B)=0-30%)
same,V27A OOcyte Inhibition at 100 uM (%),[2],A (key: (A)=31-95%; (B)=0-30%)
"Clc1c(CNC23CC4CC(CC(C4)C2)C3)nc2sccn12 [Example 87, Adamantan-1-yl-(5-chloro-imidazo[2,1-b]thiazol-6-ylmethyl)-amine]",S31N OOcyte Inhibition at 100 uM (%),[1]; pH 5.5,B (key: (A)=31-95%; (B)=0-30%)
same,V27A OOcyte Inhibition at 100 uM (%),[2]; pH 5.5,B (key: (A)=31-95%; (B)=0-30%)
c1cc2c(cc1CNC13CC4CC(CC(C4)C1)C3)OCO2 [Example 49],S31N OOcyte Inhibition at 100 uM (%),[1]; pH 5.5,B (key: (A)=31-95%; (B)=0-30%)
same,V27A OOcyte Inhibition at 100 uM (%),[2]; pH 5.5,B (key: (A)=31-95%; (B)=0-30%)
"c1cc(-c2nc(CNC34CC5CC(CC(C5)C3)C4)no2)cs1 [Example 143a, N-((5-(thiophen-3-yl)-1,2,4-oxadiazol-3-yl)methyl)adamantan-1-amine]",S31N OOcyte Inhibition at 100 uM (%),[1],A (key: (A)=31-95%; (B)=0-30%)
same,V27A OOcyte Inhibition at 100 uM (%),[2],B (key: (A)=31-95%; (B)=0-30%)
"c1coc(-c2cc(CNC34CC5CC(CC(C5)C3)C4)no2)c1 [Example 153a, N-((5-(furan-2-yl)isoxazol-3-yl)methyl)adamantan-1-amine]",S31N OOcyte Inhibition at 100 uM (%),[1],A (key: (A)=31-95%; (B)=0-30%)
same,V27A OOcyte Inhibition at 100 uM (%),[2],B (key: (A)=31-95%; (B)=0-30%)
"Fc1ccc(CNC23CC4CC(CC(C4)C2)C3)c(F)c1 [Example 54, Adamantan-1-yl-(2,4-difluoro-benzyl)-amine]",S31N OOcyte Inhibition at 100 uM (%),[1]; pH 5.5,B (key: (A)=31-95%; (B)=0-30%)
same,V27A OOcyte Inhibition at 100 uM (%),[2]; pH 5.5,B (key: (A)=31-95%; (B)=0-30%)
"c1csc(-c2cc(CNC34CC5CC(CC(C5)C3)C4)no2)c1 [Example 142a, N-((5-(thiophen-2-yl)isoxazol-3-yl)methyl)adamantan-1-amine]",S31N OOcyte Inhibition at 100 uM (%),[1],A (key: (A)=31-95%; (B)=0-30%)
same,V27A OOcyte Inhibition at 100 uM (%),[2],B (key: (A)=31-95%; (B)=0-30%)
"Brc1cccc(CNC23CC4CC(CC(C4)C2)C3)c1 [Example 3a, N-(3-Bromobenzyl)adamantan-1-amine]",S31N OOcyte Inhibition at 100 uM (%),[1],B (key: (A)=31-95%; (B)=0-30%)
same,V27A OOcyte Inhibition at 100 uM (%),[2],B (key: (A)=31-95%; (B)=0-30%)
"c1cc2[nH]c(CNC34CC5CC(CC(C5)C3)C4)cc2s1 [Example 80, Adamantan-1-yl-(4H-thieno[3,2-b]pyrrol-5-ylmethyl)-amine]",S31N OOcyte Inhibition at 100 uM (%),[1]; pH 5.5,A (key: (A)=31-95%; (B)=0-30%)
same,V27A OOcyte Inhibition at 100 uM (%),[2]; pH 5.5,B (key: (A)=31-95%; (B)=0-30%)
"c1ccc2[nH]c(CNC34CC5CC(CC(C5)C3)C4)nc2c1 [Example 92, Adamantan-1-yl-(1H-benzoimidazol-2-ylmethyl)-amine]",S31N OOcyte Inhibition at 100 uM (%),[1]; pH 5.5,A (key: (A)=31-95%; (B)=0-30%)
same,V27A OOcyte Inhibition at 100 uM (%),[2]; pH 5.5,B (key: (A)=31-95%; (B)=0-30%)
"Cc1ccc(CNC23CC4CC(CC(C4)C2)C3)s1 [Example 78a, N-((5-methylthiophen-2-yl)methyl)adamantan-1-amine]",S31N OOcyte Inhibition at 100 uM (%),[1],A (key: (A)=31-95%; (B)=0-30%)
same,V27A OOcyte Inhibition at 100 uM (%),[2],A (key: (A)=31-95%; (B)=0-30%)
"Cn1c(CNC23CC4CC(CC(C4)C2)C3)cc2sccc21 [Example 172a, Adamantan-1-yl-(4-methyl-4H-thieno[3,2-b]pyrrol-5-ylmethyl)-amine]",S31N OOcyte Inhibition at 100 uM (%),[1],B (key: (A)=31-95%; (B)=0-30%)
same,V27A OOcyte Inhibition at 100 uM (%),[2],B (key: (A)=31-95%; (B)=0-30%)
"c1cnc2ccc(CNC34CC5CC(CC(C5)C3)C4)cc2c1 [Example 39a, Adamantan-1-yl-quinolin-6-ylmethyl-amine]",S31N OOcyte Inhibition at 100 uM (%),[1],A (key: (A)=31-95%; (B)=0-30%)
same,V27A OOcyte Inhibition at 100 uM (%),[2],B (key: (A)=31-95%; (B)=0-30%)
"Cc1ccc(-c2ccc(CNC34CC5CC(CC(C5)C3)C4)cc2)o1.Cl [Example 32a, N-(4-(5-Methylfuran-2-yl)benzyl)adamantan-1-amine hydrochloride]",S31N OOcyte Inhibition at 100 uM (%),[1],A (key: (A)=31-95%; (B)=0-30%)
same,V27A OOcyte Inhibition at 100 uM (%),[2],B (key: (A)=31-95%; (B)=0-30%)
"c1cn2cc(CNC3C4CC5CC(C4)CC3C5)nc2s1 (stereo not shown) [Example 107, Adamantan-2-yl-imidazo[2,1-b]thiazol-6-ylmethyl-amine]",S31N OOcyte Inhibition at 100 uM (%),[1]; pH 5.5,B (key: (A)=31-95%; (B)=0-30%)
same,V27A OOcyte Inhibition at 100 uM (%),[2]; pH 5.5,B (key: (A)=31-95%; (B)=0-30%)
"COc1ccc(CNC23CC4CC(CC(C4)C2)C3)s1 [Example 75a, N-((5-methoxythiophen-2-yl)methyl)adamantan-1-amine]",S31N OOcyte Inhibition at 100 uM (%),[1],A (key: (A)=31-95%; (B)=0-30%)
same,V27A OOcyte Inhibition at 100 uM (%),[2],B (key: (A)=31-95%; (B)=0-30%)
"c1cc(-c2ccc(CNC34CC5CC(CC(C5)C3)C4)s2)[nH]n1 [Example 158a, N-((5-(1H-pyrazol-5-yl)thiophen-2-yl)methyl)adamantan-1-amine]",S31N OOcyte Inhibition at 100 uM (%),[1],A (key: (A)=31-95%; (B)=0-30%)
same,V27A OOcyte Inhibition at 100 uM (%),[2],A (key: (A)=31-95%; (B)=0-30%)
"Cc1ccc(-c2ccc(CNC34CC5CC(CC(C5)C3)C4)s2)s1 [Example 141a, N-((5′-methyl-[2,2′-bithiophen]-5-yl)methyl)adamantan-1-amine]",S31N OOcyte Inhibition at 100 uM (%),[1],A (key: (A)=31-95%; (B)=0-30%)
same,V27A OOcyte Inhibition at 100 uM (%),[2],B (key: (A)=31-95%; (B)=0-30%)
"COc1ccc2cc(CNC34CC5CC(CC(C5)C3)C4)ccc2c1 [Example 40a, Adamantan-1-yl-(6-methoxy-naphthalen-2-ylmethyl)-amine]",S31N OOcyte Inhibition at 100 uM (%),[1],B (key: (A)=31-95%; (B)=0-30%)
same,V27A OOcyte Inhibition at 100 uM (%),[2],A (key: (A)=31-95%; (B)=0-30%)
"Oc1ccc(CNC2C3CC4CC(C3)CC2C4)cc1 (stereo not shown) [Example 99, 4-(Adamantan-2-ylaminomethyl)-phenol]",S31N OOcyte Inhibition at 100 uM (%),[1]; pH 5.5,B (key: (A)=31-95%; (B)=0-30%)
same,V27A OOcyte Inhibition at 100 uM (%),[2]; pH 5.5,B (key: (A)=31-95%; (B)=0-30%)
